Assay results reported in PMC11707700, “Exploiting fourth-generation synchrotron radiation for enzyme and photoreceptor characterization” (IUCrJ, 2025).

Experiments:
SaBphP2-PCM = target: T1, SaBphP2-PCM (Allostigmatella aurantiaca, UniProt Q09E27); assay: serial synchrotron X-ray crystallography (room temperature); type: binding; conditions: covalent; chromophore; dark Pr state, 2.1 A refinement; also difference map 700 ms after 640 nm light
T1 construct: gene STIAU_8420; photosensory core module (PAS-GAF-PHY), lacks C-terminal effector (histidine kinase) domain; recombinant; homodimer
T1 sequence (Q09E27 1-490): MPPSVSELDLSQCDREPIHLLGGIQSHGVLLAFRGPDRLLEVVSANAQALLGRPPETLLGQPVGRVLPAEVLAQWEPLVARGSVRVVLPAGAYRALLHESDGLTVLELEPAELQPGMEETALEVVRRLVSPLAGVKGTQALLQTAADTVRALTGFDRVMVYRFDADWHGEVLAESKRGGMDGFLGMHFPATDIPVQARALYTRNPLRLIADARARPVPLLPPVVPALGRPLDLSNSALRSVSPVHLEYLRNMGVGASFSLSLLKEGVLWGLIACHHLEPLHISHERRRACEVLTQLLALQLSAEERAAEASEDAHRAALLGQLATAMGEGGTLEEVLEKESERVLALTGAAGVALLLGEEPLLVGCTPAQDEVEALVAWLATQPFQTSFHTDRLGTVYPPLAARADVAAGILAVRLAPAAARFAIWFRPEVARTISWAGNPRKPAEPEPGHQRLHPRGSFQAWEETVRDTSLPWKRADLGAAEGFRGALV

[1] = target: T2, photoactive yellow protein (PYP) (Halorhodospira halophila, UniProt P16113); assay: as above; type: binding; conditions: covalent; thioester to conserved cysteine; space group P6_5, 1.8 A (fixed target) and 1.9 A (tape drive); PEG 4000, MES pH 6.5
T2 construct: full length, 125 amino acids, 14 kDa; overexpressed in Escherichia coli; chromophore attached to the conserved cysteine
T2 sequence (P16113 1-125): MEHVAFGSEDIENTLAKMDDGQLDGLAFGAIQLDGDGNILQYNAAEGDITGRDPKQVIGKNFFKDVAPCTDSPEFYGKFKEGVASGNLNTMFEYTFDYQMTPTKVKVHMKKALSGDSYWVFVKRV

SMILES | serial synchrotron X-ray crystallography (room temperature) (SaBphP2-PCM) | serial synchrotron X-ray crystallography (room temperature) [1]
C=CC1=C(C)/C(=C/C2=NC(=C\c3[nH]c(/C=C4\NC(=O)C(C)=C4C=C)c(C)c3CCC(=O)O)/C(CCC(=O)O)=C2C)NC1=O [biliverdin] | The DED features, localized to the BV chromophore, indicate displacement of the BV | –
O=C(O)/C=C/c1ccc(O)cc1 [p-coumaric acid] | – | The pCA chromophore pocket is marked by the red box
